Residues, ends and D or L forms follow the SMILES beside them. *: point of attachment. Cbz = O=C(OCc1ccccc1)*; CH2F = FC*
Assays:
FL5.12 cells = assay: BAX integration into mitochondrial membrane of FL5.12 cells after IL-3 withdrawal (alkali extraction, anti-BAX Western blot); type: cell-based; conditions: FL5.12 cells deprived of IL-3 for 12 hours, 50 mM zVAD-fmk
Protocol: In the absence of a death signal during apoptosis of a cell, BAX is found free in the cytosol of the cell or is peripherally associated with endocellular membrane surfaces. We performed a Western blotting analysis of mitochondrial membranes from FL5.12 cells, immunoblotting anti-BAX antibodies (antibodies commercially available from, for example, Santa Cruz Biotech., Santa Cruz, Calif.; FIG. 1). Briefly, the mitochondrial fraction was prepared from FL5.12 cells maintained in IL-3 (FIG. 1, lanes 1, 2, 5, and 6) or deprived of IL-3 for 12 hours (FIG. 1, lanes 3, 4, 7, and 8), in the absence (FIG. 1, lanes 1, 3, 5, and 7) or presence (FIG. 1, lanes 2, 4, 6, and 8) of […] zVAD-fmk for 12 hours by centrifuging at 200,000×g for 45 min. to yield supernatant and pellet fractions (the pellet fraction contains the mitochondrial membranes). The mitochondrial fractions were analyzed either directly (FIG. 1, lanes 1-4) or following extraction with 0.1 M Na2CO3, pH 11.5 (FIG. 1, lanes 5-8).
Cells were collected, washed twice with phosphate buffered saline, suspended in 2 ml HIM buffer (0.2% w/v BSA, 200 mM mannitol, 70 mM sucrose, 10 mM HEPES-KOH, 1 mM EGTA, pH 7.5), and subjected to homogenization with a Polytron homogenizer (Brinkmann Instruments Inc., Westbury, N.Y.) for 4 bursts of 10 seconds each at a setting of 6.5. All subsequent steps were conducted at 4° C. […]

[1] = tested on: intact mitochondria isolated from rat heart; assay: Mitochondrial protein targeting in vitro (35S-labelled reticulocyte lysate translation products, alkali-resistant insertion); type: biochemical; design: BAX targeting supported by apoptotic high speed cytosol / mitochondrial membrane insertion of BAX with additional cytochrome c: dose or concentration left out as unconfirmed
Source text: To examine targeting of BAX into mitochondria in vitro, we employed the ^35S-labelled transcription-translation product of BAX cDNA in rabbit reticulocyte lysate combined with intact mitochondria isolated from rat heart. This is a well documented system that faithfully reflects in vivo import of diverse mitochondrial proteins, including the insertion of integral proteins into the mitochondrial outer membrane (Li and Shore, Science 256:1815-1817, 1992; McBride et al., J. Cell Biol. 119:1451-1457, 1992).
The results of our investigation as to whether or not apoptotic cell extract supports BAX targeting to mitochondria in vitro are presented in FIGS. 3A-3D. Briefly, in the experiments were conducted as follows. In FIG. 3A, ^35S-labeled transcription-translation products of BAX cDNA in rabbit reticulocyte lysate (BAX and BAXΔART) were incubated with purified, intact mitochondria from rat heart in a standard protein import reaction supplemented with 1 mM dATP (FIG. 3A, lanes 3, 4, 6, and 7) or 1 mM dATP and […] apoptotic cytosol protein (Extract) (FIG. 3A, lanes 4 and 7), in a volume of […]. At the end of the reaction, mitochondria were recovered by centrifugation and the pellets analyzed by SDS PAGE and fluorography either directly or after extraction with […], pH 11.5 (Alkali) (FIG. 3A, lanes 5-7).
The heart of one male Sprague Dawley rat (approximately 250 grams) was placed in approximately 100 ml HIM buffer (0.2% w/v BSA, 200 mM mannitol, 70 mM sucrose, 10 mM HEPES-KOH, 1 mM EGTA, pH 7.5) on ice, squeezed several times to force out blood, and transferred to 7.5 ml HIM in a 15-ml corex tube. All subsequent steps were conducted at 4° C. The heart was homogenized with a Polytron homogenizer (Brinkmann Instruments Inc., Westbury, N.Y.) operating for 1 second at setting 6.5. Nuclei and unbroken cells were pelleted at 1800 rpm for 10 min. in a Sorvall SS34 rotor. The supernatant was centrifuged for 10 min. at 7000 rpm. The resulting pellet was resuspended in HIM (minus BSA), centrifuged at 1800 rpm and the mitochondria were collected at 7000 rpm. The mitochondrial pellet was resuspended in cMRM (250 mM sucrose, 10 mM HEPES-KOH, 1 mM ATP, 5 mM Na Succinate, 0.08 mM ADP, 2 mM K2HPO4, pH 7.5) at a concentration of 1 mg of mitochondrial protein per ml, and adjusted to 1 mM dithiothreitol just before use.
cDNAs were transcribed and translated in the presence of ^35S-methionine in a cell-free rabbit reticulocyte lysate system (Promega Corp., Madison, Wis.) according to the manufacturer's directions. For a standard mitochondrial protein import reaction, 5 μl of translation reaction was incubated with 20 μl of Buffer A (20 mM HEPES-KOH, 10 mM KCl, 2.5 mM MgCl2, 1 mM EDTA, 1 mM EGTA, 1 mM dithiothreitol, pH 7.5) and 25 μl mitochondria or mitoplasts in cMRM (1 mg protein / ml) at 30° C or 37° C. for 30 min. to 2 hours. The import reaction was then layered on a 500 μl cushion of 1×MRM (250 mM sucrose, 10 mM HEPES-KOH, pH 7.5) and centrifuged for 4 min. at top speed in a microfuge at 4° C. For alkali extraction, the mitochondrial pellet was resuspended (0.25 mg protein / ml) in freshly prepared 0.1 M Na2CO3, pH 11.5, and incubated for 30 min. on ice. The membranes were then pelleted in an airfuge (commercially available from Beckman Instruments Canada Inc., Montreal, PQ, Canada) operating for 10 min. at 30 psi. The pellet was analyzed by SDS-PAGE and fluorography. […]

[2] = tested on: caspases of KB apoptotic cell extract (24 kDa PARP cleavage product); assay: Poly(ADP ribosyl) polymerase (PARP) cleavage by KB apoptotic cell extract; type: biochemical, human; design: ability of the extract to drive PARP cleavage: dose or concentration left out as unconfirmed
Protocol: In FIG. 3C, ^35S-labeled transcription-translation product of PARP cDNA in reticulocyte lysate (5% by volume) was incubated with (FIG. 3C, lanes 2 and 3) or without (FIG. 3C, lane 1) […] apoptotic cytosol protein in a total volume of […], in the presence (FIG. 3C, lane 3) or absence (FIG. 3C, lanes 1 and 2) of 1 mM dATP, and equivalent portions analyzed for the appearance of the 24 kDa cleavage product of poly(ADP ribosyl) polymerase (24 K PARP) by 12% SDS PAGE and fluorography.
Extract was prepared at 4° C. according to the procedure of Liu et al. (supra) with some minor modifications. Briefly, human KB epithelial cells were harvested in PBS containing 1.3 mM Na citrate and 0.6 mM EDTA. The cell pellet was washed in Buffer A/ext (50 mM PIPES, 50 mM KCl, 5 mM EGTA, 2 mM MgCl2, 1 mM dithiothreitol, 20 μM cytochalasin B, pH 7.4), then resuspended in an equal volume of Buffer A/ext. The cells were disrupted by 5 cycles of freeze-thaw interspersed by 5 strokes with a Wheaton glass homogenizer fitted with a B pestle, and centrifuged at […] for 1 hour in a Beckman Ti75 rotor. The resulting supernatant contained 10 mg protein / ml. […]

COS-7 and CHO cells = assay: Immunofluorescence microscopy with anti-HA antibody of transfected cells; type: cell-based; conditions: 24 hours
Source text: Thus, the enhanced cytotoxicity of HA-BAXΔART compared to HA-BAX in vivo correlates with inhibition of BAX membrane integration by the ART domain in vitro.

[3] = zVAD-fmk added before dATP and incubation at 37° C.
[4] = extract depleted of cytochrome c by immunoadsorption

COC(=O)C[C@H](NC(=O)[C@H](C)NC(=O)[C@@H](NC(=O)OCc1ccccc1)C(C)C)C(=O)CF [zVAD-fmk, reference compound] (Cbz-Val-Ala-Asp(OMe)-CH2F)
BAX integration into mitochondrial membrane in response to IL-3 withdrawal (FL5.12 cells; alkaline-resistant BAX): partly blocked | recovery of total BAX associated with mitochondria (FL5.12 cells; no alkali extraction): did not significantly influence | BAX targeting supported by apoptotic high speed cytosol [1, 3]: effectively inhibit | ability of the extract to drive PARP cleavage [2, 3]: abolished

HA-BAX: hemagglutinin epitope tagged BAX expressed by transfection
cells expressing the HA-tagged protein (COS-7 and CHO cells): 7.5%

BAX: full length murine BAX proapoptotic protein, translated in rabbit reticulocyte lysate
mitochondrial targeting / membrane integration in vitro ([1]; absence of apoptotic cell extract, resistance to extraction at alkaline pH): failed to target mitochondria

cytochrome c: cytochrome c protein added to apoptotic cell extract or reticulocyte lysate
mitochondrial membrane insertion of BAX with additional cytochrome c ([1]; cytochrome c added to apoptotic cytosol): No improvement | BAX targeting after add-back to cytochrome c depleted extract [1, 4]: re-instated | BAX targeting with cytochrome c alone ([1]; reticulocyte lysate translation mixtures, no extract): failed to stimulate | PARP cleavage after add-back to cytochrome c depleted extract [2, 4]: re-instated
